Data taken from ChEMBL document CHEMBL4118082 (Eur J Med Chem, 2017).
In brackets after ≈: the same amount, converted by molar mass.

Legend:
Format in all cases: functional
[1] = system: Mycobacterium tuberculosis; experiment: Growth inhibition of Mycobacterium tuberculosis H37Ra Lehmann and Neumann ATCC 25177 harboring pSMT1 luciferase reporter at 10 uM after 6 days by luminescence based serial dilution method relative to control; conditions: H37Ra Lehmann and Neumann ATCC 25177, 144 h, read-out: GI
[2] = system: Mycobacterium tuberculosis; experiment: Growth inhibition of Mycobacterium tuberculosis H37Ra Lehmann and Neumann ATCC 25177 harboring pSMT1 luciferase reporter at 1 uM after 6 days by luminescence based serial dilution method relative to control; conditions: H37Ra Lehmann and Neumann ATCC 25177, 144 h, read-out: GI
[3] = system: Mycobacterium tuberculosis; experiment: Growth inhibition of Mycobacterium tuberculosis H37Ra Lehmann and Neumann ATCC 25177 harboring pSMT1 luciferase reporter at 0.1 uM after 6 days by luminescence based serial dilution method relative to control; conditions: H37Ra Lehmann and Neumann ATCC 25177, 144 h, read-out: GI
[4] = system: Mycobacterium tuberculosis; experiment: Antimycobacterial activity against Mycobacterium tuberculosis H37Ra Lehmann and Neumann ATCC 25177 harboring pSMT1 luciferase reporter after 6 days by luminescence based serial dilution method; conditions: H37Ra Lehmann and Neumann ATCC 25177, 144 h

Structure (SMILES) | inhibition of growth at 10 µM [1] [%] | inhibition of growth at 1 µM [2] [%] | inhibition of growth at 0.1 µM [3] [%] | MIC90 [4] [µM]
COc1ccc2[nH]c(=O)c(-c3ccccc3)c(OC(C)=O)c2c1 | 79.6 | 43.2 | 22.5 | –
O=c1c(-c2ccccc2)c(O)c2ccccc2n1-c1ccccc1 | 98.3 | 53.7 | 30.1 | 6.4 (≈ 2.01 µg/mL)
CCCCc1c(O)c2ccccc2n(C)c1=O | 23.9 | 10.5 | 0 | –
CCCc1c(O)c2ccccc2n(-c2ccccc2)c1=O | 56.6 | 46.3 | 10.4 | –
CCCc1c(O)c2cc(F)ccc2[nH]c1=O | 78.2 | 38.5 | 13.2 | –
O=c1c(-c2ccccc2)c(O)c2ccccc2n1Cc1ccccc1 | 71.5 | 42.4 | 31.2 | –
COc1cccc2c(OC(C)=O)c(-c3ccccc3)c(=O)[nH]c12 | 76.3 | 32.5 | 8.9 | –
CCCCc1c(O)c2cc(OC)cc(OC)c2[nH]c1=O | 62.6 | 10.7 | 0 | –
CCc1c(O)c2cc(OC)ccc2[nH]c1=O | 68.2 | 56.3 | 0 | –
Cc1c(O)c2ccccc2n(C)c1=O | 83.8 | 32.9 | 4 | –
COc1ccc2c(OC(C)=O)c(-c3ccccc3)c(=O)[nH]c2c1 | 81.2 | 39.7 | 20.9 | –
CCc1c(O)c2c(Cl)ccc(C)c2[nH]c1=O | 55.1 | 48.8 | 33.3 | –
Oc1nc2ccccc2c(O)c1Cc1ccccc1 | 53.5 | 40.2 | 7.5 | –
CC(=O)Oc1cc(=O)[nH]c2ccccc12 | 35.4 | 21.1 | 14.5 | –
CO[C@H]1/C=C/O[C@@]2(C)Oc3c(C)c(O)c4c(O)c(c(/C=N/N5CCN(C)CC5)c(O)c4c3C2=O)NC(=O)/C(C)=C\C=C\[C@H](C)[C@H](O)[C@@H](C)[C@@H](O)[C@@H](C)[C@H](OC(C)=O)[C@@H]1C [RIFAMPIN] | – | – | – | 0.1 (≈ 0.0823 µg/mL)
Cc1cc2[nH]c(=O)c(-c3ccccc3)c(O)c2cc1C | 90.7 | 48.3 | 32.5 | 9.2 (≈ 2.44 µg/mL)
CC(C)c1c(O)c2ccccc2[nH]c1=O | 69.3 | 47.4 | 42.5 | –
COc1ccc2c(O)c(-c3ccccc3)c(=O)[nH]c2c1 | 98.2 | 74.4 | 56.5 | 9.1 (≈ 2.43 µg/mL)
O=c1c(Cc2ccccc2)c(O)c2ccccc2n1-c1ccccc1 | 56.3 | 54.7 | 20.3 | –
O=c1[nH]c2cc(O)ccc2c(O)c1-c1ccccc1 | 96.3 | 61.7 | 53.7 | 8.2 (≈ 2.08 µg/mL)
COc1ccc2[nH]c(=O)c(-c3ccccc3)c(O)c2c1 | 90.8 | 24.5 | 9.4 | 8.7 (≈ 2.33 µg/mL)
Oc1nc2ccccc2c(O)c1-c1ccccc1 | 92.4 | 59.2 | 56 | 8.5 (≈ 2.02 µg/mL)
CCCCc1c(O)c2c(n(-c3ccccc3)c1=O)C1(C)CCC2C1(C)C (racemic) | 7.5 | 1.2 | 0 | –
O=c1c(Cc2ccccc2)c(O)c2ccccc2n1Cc1ccccc1 | 49.5 | 38.8 | 24.8 | –

Structure (SMILES) | inhibition of growth at 10 µM [1] [%] | inhibition of growth at 1 µM [2] [%] | inhibition of growth at 0.1 µM [3] [%] | MIC90 [4] [µM]
CCc1c(O)c2c(C)ccc(C)c2[nH]c1=O | 86.2 | 46.4 | 16.9 | –
CCc1c(OC(C)=O)c2ccccc2[nH]c1=O | 29.4 | 9.4 | 3.5 | –
O=c1[nH]c2ccc(F)cc2c(O)c1-c1ccccc1 | 99.5 | 42.6 | 35.1 | 3.2 (≈ 0.817 µg/mL)
CCn1c(=O)c(-c2ccccc2)c(O)c2ccccc21 | 8.2 | 0 | 0 | –
CCCCc1c(O)c2c(Cl)ccc(C)c2[nH]c1=O | 59.1 | 38.7 | 30 | –
CC12CCC(c3c(O)c(-c4ccccc4)c(=O)n(-c4ccccc4)c31)C2(C)C (racemic) | 12.5 | 8.1 | 0 | –
CCc1c(OC(C)=O)c2ccc(OC)cc2[nH]c1=O | 28.6 | 15.3 | 0 | –
CCc1c(OC(C)=O)c2cc(OC)ccc2[nH]c1=O | 27.8 | 10.1 | 0 | –
CCc1c(O)c2cccc(OC)c2[nH]c1=O | 71 | 66.4 | 65.8 | –
CCc1c(O)c2ccc(OC)cc2[nH]c1=O | 60.8 | 36 | 23.7 | –
Cn1c(=O)c(-c2ccccc2)c(O)c2ccccc21 | 87.2 | 49.5 | 29.8 | –
CCc1c(O)c2ccccc2n(-c2ccccc2)c1=O | 25.6 | 34.8 | 22.5 | –
CC(=O)Oc1c(-c2ccccc2)c(=O)[nH]c2ccccc12 | 72.3 | 35.4 | 10.9 | –
CCCCc1c(O)c2cc(Cl)ccc2[nH]c1=O | 64.8 | 35.4 | 21.6 | –
CCCCc1c(O)c2ccccc2n(Cc2ccccc2)c1=O | 33.2 | 25.3 | 20.9 | –
CCc1c(OC(C)=O)c2cc(F)ccc2[nH]c1=O | 44.5 | 14 | 0 | –
CCc1c(O)c2ccc(O)cc2[nH]c1=O | 49.4 | 34.3 | 25.6 | –
CCCCc1c(O)c2ccccc2n(-c2ccccc2)c1=O | 47.3 | 46.3 | 34.4 | –
CCc1c(OC(C)=O)c2cccc(OC)c2[nH]c1=O | 31.2 | 13.3 | 0 | –
CCc1c(O)c2ccccc2[nH]c1=O | 98.6 | 78.2 | 59.2 | –
Cc1c(O)c2ccccc2n(-c2ccccc2)c1=O | 74.5 | 48.5 | 36 | –
CCc1c(O)c2cc(F)ccc2[nH]c1=O | 57.3 | 51.3 | 40 | –
NNC(=O)c1ccncc1 [ISONIAZID] | – | – | – | 0.3 (≈ 0.0411 µg/mL)
CC(=O)Oc1c(C)c(=O)[nH]c2ccccc12 | 45.2 | 31.8 | 19.2 | –
